Measurements from US9670212B2, “Inhibitors of PI3K-delta and methods of their use and manufacture” (Exelixis, Inc., priority 2010, dated 2017).

molecular target: PI3K delta (Homo sapiens (Human), UniProt O00329); assay: Luciferase-coupled chemiluminescence kinase assay (KinaseGlo, ATP consumption); assay type: biochemical
Procedure: Kinase activity and compound inhibition were investigated using one or more of the assay formats described below. The ATP concentrations used in the various assays were approximately equal to or less than the KM for each of the respective kinases. Dose-response experiments were performed using an intra-plate dilution scheme with 10 different inhibitor concentrations in a 384-well microtiter plate. […] Typically N should approximate unity. Curve fitting was performed using XLFit or ActivityBase. Luciferase-Coupled Chemiluminescence Assay Protocol
Kinase activity is measured as the percent of ATP consumed following the kinase reaction using luciferase-luciferin-coupled chemiluminescence. […] Kinase reactions were initiated by combining test compounds, kinase, and ATP in a 20 μL volume (6 μL volume for 1536-well plate). The reaction mixture was incubated at ambient temperature for 2 h. Following the kinase reaction, a 20 μL (or 3 μL for 1536-well plate) aliquot of KinaseGlo (Promega) was added and the chemiluminescence signal measured using an EnVision plate reader (Perkin Elmer).

Chain of PI3K delta (O00329 whole entry): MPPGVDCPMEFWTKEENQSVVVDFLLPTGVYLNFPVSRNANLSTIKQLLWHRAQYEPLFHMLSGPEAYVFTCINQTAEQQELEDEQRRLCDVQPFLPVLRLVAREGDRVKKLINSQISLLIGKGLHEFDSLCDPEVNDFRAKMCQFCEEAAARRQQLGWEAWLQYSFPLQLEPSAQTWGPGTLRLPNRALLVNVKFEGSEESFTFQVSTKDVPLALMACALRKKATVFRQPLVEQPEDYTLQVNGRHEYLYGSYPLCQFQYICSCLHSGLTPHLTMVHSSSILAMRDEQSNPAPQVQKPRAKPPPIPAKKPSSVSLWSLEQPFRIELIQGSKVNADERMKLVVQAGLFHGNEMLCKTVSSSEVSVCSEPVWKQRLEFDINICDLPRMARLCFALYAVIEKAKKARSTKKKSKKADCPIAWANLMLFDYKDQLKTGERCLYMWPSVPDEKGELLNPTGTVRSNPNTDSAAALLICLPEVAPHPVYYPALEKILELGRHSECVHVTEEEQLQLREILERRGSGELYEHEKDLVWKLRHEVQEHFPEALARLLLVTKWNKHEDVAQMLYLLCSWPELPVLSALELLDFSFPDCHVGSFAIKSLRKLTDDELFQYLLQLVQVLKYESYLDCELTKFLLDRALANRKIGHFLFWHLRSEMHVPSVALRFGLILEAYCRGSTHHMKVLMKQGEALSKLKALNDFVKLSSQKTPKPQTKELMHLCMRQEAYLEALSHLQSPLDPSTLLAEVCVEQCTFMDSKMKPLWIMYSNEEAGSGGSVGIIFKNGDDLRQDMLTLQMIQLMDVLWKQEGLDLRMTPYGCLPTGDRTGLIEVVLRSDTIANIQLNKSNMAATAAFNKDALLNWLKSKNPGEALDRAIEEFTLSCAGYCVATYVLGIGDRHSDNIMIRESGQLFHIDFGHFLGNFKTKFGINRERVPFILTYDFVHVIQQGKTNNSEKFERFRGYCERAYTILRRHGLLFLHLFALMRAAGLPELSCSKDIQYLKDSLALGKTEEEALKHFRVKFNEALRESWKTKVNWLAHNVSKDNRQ
Chain of PI3K delta (P27986 whole entry partner): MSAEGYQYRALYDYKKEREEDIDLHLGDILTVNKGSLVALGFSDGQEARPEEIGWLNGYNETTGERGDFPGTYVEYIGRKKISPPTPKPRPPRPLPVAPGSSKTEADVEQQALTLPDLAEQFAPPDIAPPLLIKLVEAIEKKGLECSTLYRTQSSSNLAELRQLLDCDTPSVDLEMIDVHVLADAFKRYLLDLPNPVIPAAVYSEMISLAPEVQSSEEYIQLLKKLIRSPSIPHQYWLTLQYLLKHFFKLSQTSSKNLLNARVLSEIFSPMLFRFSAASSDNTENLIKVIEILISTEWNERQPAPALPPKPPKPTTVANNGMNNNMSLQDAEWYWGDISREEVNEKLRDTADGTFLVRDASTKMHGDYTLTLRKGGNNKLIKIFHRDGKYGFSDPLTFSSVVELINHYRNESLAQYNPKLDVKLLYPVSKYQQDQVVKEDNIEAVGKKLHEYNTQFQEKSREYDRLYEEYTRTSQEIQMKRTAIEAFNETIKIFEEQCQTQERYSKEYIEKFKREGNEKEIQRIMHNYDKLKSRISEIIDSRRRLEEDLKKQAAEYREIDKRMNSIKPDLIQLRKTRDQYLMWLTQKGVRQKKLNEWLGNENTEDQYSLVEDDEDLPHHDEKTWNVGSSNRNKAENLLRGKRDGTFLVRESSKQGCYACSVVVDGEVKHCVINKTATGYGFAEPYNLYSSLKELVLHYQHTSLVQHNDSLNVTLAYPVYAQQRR

| Structure (SMILES) | IC50 [nM] |
| --- | --- |
| CCCN1CCC[C@@H]1C(=O)N(C)CCN(C)c1nc2c(C)cccc2cc1CNC(=O)c1nccnc1N [Compound 67, 3-amino-N-{[8-methyl-2-(methyl{2-[methyl(1-propyl-D-prolyl)amino]ethyl}amino)quinolin-3-yl]methyl}pyrazine-2-carboxamide] | < 50 |
| Nc1nccnc1C(=O)NCc1nc2ccccc2cc1-c1cccc(CN2CCOCC2)c1 [Compound 72, 3-amino-N-({3-[3-(morpholin-4-ylmethyl)phenyl]quinolin-2-yl}methyl)pyrazine-2-carboxamide] | 500 to 1500 |
| Cc1cccc2cc(CNC(=O)c3nccnc3N)c(NCCc3ccccn3)nc12 [Compound 96, 3-amino-N-({8-methyl-2-[(2-pyridin-2-ylethyl)amino]quinolin-3-yl}methyl)pyrazine-2-carboxamide] | 500 to 1500 |
| Nc1nccnc1C(=O)NCc1nc2ccccc2cc1-c1ccccc1CN1CCOCC1 [Compound 70, 3-amino-N-({3-[2-(morpholin-4-ylmethyl)phenyl]quinolin-2-yl}methyl)pyrazine-2-carboxamide] | 250 to 500 |
| Cc1cccc2cc(CNC(=O)c3nccnc3N)c(N3CCCN(C(=O)Cn4ccnc4C)CC3)nc12 [Compound 55, 3-amino-N-[(8-methyl-2-{4-[(2-methyl-1H-imidazol-1-yl)acetyl]-1,4-diazepan-1-yl}quinolin-3-yl)methyl]pyrazine-2-carboxamide] | 500 to 1500 |
| COCCN(C)c1nc2c(C)cccc2cc1CNc1ncnc2[nH]cnc12 [Compound 25, N,8-dimethyl-N-[2-(methyloxy)ethyl]-3-[(9H-purin-6-ylamino)methyl]quinolin-2-amine] | < 50 |
| Cc1ccccc1-n1c(CNC(=O)c2cccnc2N)nc2cccc(C)c2c1=O [Compound 176, 2-amino-N-{[5-methyl-3-(2-methylphenyl)-4-oxo-3,4-dihydroquinazolin-2-yl]methyl}pyridine-3-carboxamide] | 500 to 1500 |
| Cc1cccc2cc(CNC(=O)c3nccnc3N)c(NCCN(C)C)nc12 [Compound 129, 3-amino-N-[(2-{[2-(dimethylamino)ethyl]amino}-8-methylquinolin-3-yl)methyl]pyrazine-2-carboxamide] | 500 to 1500 |
| Cc1ccccc1-n1c(CCN)nc2cccc(C)c2c1=O [Compound 157, 2-(2-aminoethyl)-5-methyl-3-(2-methylphenyl)quinazolin-4(3H)-one] | 500 to 1500 |
| Cc1cccc2cc(CNC(=O)c3nccnc3N)c(N(C)CCN(C)C)nc12 [Compound 128, 3-amino-N-[(2-{[2-(dimethylamino)ethyl](methyl)amino}-8-methylquinolin-3-yl)methyl]pyrazine-2-carboxamide] | < 50 |
| Nc1nccnc1C(=O)NCc1nc2ccccc2cc1Br [Compound 93, 3-amino-N-[(3-bromoquinolin-2-yl)methyl]pyrazine-2-carboxamide] | 500 to 1500 |
| Nc1nccnc1C(=O)NCc1nc2ccccc2cc1-c1cscn1 [Compound 91, 3-amino-N-{[3-(1,3-thiazol-4-yl)quinolin-2-yl]methyl}pyrazine-2-carboxamide] | 500 to 1500 |
| Cc1cccc2cc(CNc3ncnc4[nH]cnc34)c(N3CCNCC3)nc12 [Compound 37, N-[(8-methyl-2-piperazin-1-ylquinolin-3-yl)methyl]-9H-purin-6-amine] | < 50 |
| CC(=O)N1CCN(c2nc3ccccc3nc2Nc2cccc(C(N)=O)c2)CC1 [Compound 41, 3-{[3-(4-acetylpiperazin-1-yl)quinoxalin-2-yl]amino}benzamide] | 500 to 1500 |
| Cc1cccc2cc(CNC(=O)c3nccnc3N)c(N3CCCN(Cc4cccnc4)CC3)nc12 [Compound 64, 3-amino-N-({8-methyl-2-[4-(pyridin-3-ylmethyl)-1,4-diazepan-1-yl]quinolin-3-yl}methyl)pyrazine-2-carboxamide] | 250 to 500 |
| COc1ccc(OCc2cc3cccc(C)c3nc2-c2ccccc2Cl)cc1 [Compound 16, 2-(2-chlorophenyl)-8-methyl-3-({[4-(methyloxy)phenyl]oxy}methyl)quinoline] | 500 to 1500 |
| Cc1cccc2cc(CNC(=O)c3nccnc3N)c(N(C)CCN(C)CC#N)nc12 [Compound 84, 3-amino-N-({2-[{2-[(cyanomethyl)(methyl)amino]ethyl}(methyl)amino]-8-methylquinolin-3-yl}methyl)pyrazine-2-carboxamide] | 50 to 250 |
| COCCN(C)c1nc2c(C)cccc2cc1CNC(=O)c1nccnc1N [Compound 104, 3-amino-N-[(8-methyl-2-{methyl[2-(methyloxy)ethyl]amino}quinolin-3-yl)methyl]pyrazine-2-carboxamide] | 500 to 1500 |
| Cc1cccc2cc(CNc3ncnc4[nH]cnc34)c(N3CCN4CCCCC4C3)nc12 (stereo not shown) [Compound 12, N-{[8-methyl-2-(octahydro-2H-pyrido[1,2-a]pyrazin-2-yl)quinolin-3-yl]methyl}-9H-purin-6-amine] | < 50 |
| COc1cccc(CNCc2cc3cccc(C)c3nc2-c2ccccc2Cl)c1 [Compound 6, 1-[2-(2-chlorophenyl)-8-methylquinolin-3-yl]-N-{[3-(methyloxy)phenyl]methyl}methanamine] | 500 to 1500 |
| Cc1cccc2cc(CNC(=O)c3nccnc3N)c(N(C)CCNC(=O)Cn3ccnn3)nc12 [Compound 51, 3-amino-N-{[8-methyl-2-(methyl{2-[(1H-1,2,3-triazol-1-ylacetyl)amino]ethyl}amino)quinolin-3-yl]methyl}pyrazine-2-carboxamide] | 50 to 250 |
| Cc1cccc2cc(CNC(=O)c3nccnc3N)c(N3CCCN(C(=O)Cn4ccnc4)CC3)nc12 [Compound 54, 3-amino-N-({2-[4-(1H-imidazol-1-ylacetyl)-1,4-diazepan-1-yl]-8-methylquinolin-3-yl}methyl)pyrazine-2-carboxamide] | 500 to 1500 |
| CNCCN(C)c1nc2c(C)cccc2cc1-c1nnc(-c2nccnc2N)o1 [Compound 29, N-{3-[5-(3-aminopyrazin-2-yl)-1,3,4-oxadiazol-2-yl]-8-methylquinolin-2-yl}-N,N′-dimethylethane-1,2-diamine] | 500 to 1500 |
| Cc1cccc2cc(CNC(=O)c3nccnc3N)c(N(Cc3cccnc3)Cc3cccnc3)nc12 [Compound 46, 3-amino-N-({2-[bis(pyridin-3-ylmethyl)amino]-8-methylquinolin-3-yl}methyl)pyrazine-2-carboxamide] | 250 to 500 |
| CNC(=O)CN(C)CCN(C)c1nc2c(C)cccc2cc1CNC(=O)c1nccnc1N [Compound 76, 3-amino-N-({8-methyl-2-[methyl(2-{methyl[2-(methylamino)-2-oxoethyl]amino}ethyl)amino]quinolin-3-yl}methyl)pyrazine-2-carboxamide] | 50 to 250 |

Second part, the compound after the results:

| IC50 [nM] | Structure (SMILES) |
| --- | --- |
| 500 to 1500 | Cc1ccccc1-c1cc2ccccc2nc1CNC(=O)c1nccnc1N [Compound 142, 3-amino-N-{[3-(2-methylphenyl)quinolin-2-yl]methyl}pyrazine-2-carboxamide] |
| 50 to 250 | Cc1cccc2cc(CNC(=O)c3nccnc3N)c(-c3ccccc3Cl)nc12 [Compound 148, 3-amino-N-{[2-(2-chlorophenyl)-8-methylquinolin-3-yl]methyl}pyrazine-2-carboxamide] |
| 500 to 1500 | Cc1cccc(-c2nc3c(C)cccc3cc2Cn2cnc3c(N)ncnc32)c1C [Compound 180, 9-{[2-(2,3-dimethylphenyl)-8-methylquinolin-3-yl]methyl}-9H-purin-6-amine] |
| 500 to 1500 | Cc1cccc2cc(CNC(=O)c3nccnc3N)c(N3CCCCC3)nc12 [Compound 147, 3-amino-N-[(8-methyl-2-piperidin-1-ylquinolin-3-yl)methyl]pyrazine-2-carboxamide] |
| 50 to 250 | Cc1cccc2cc(Cn3cnc4c(N)ncnc43)c(N3CCN(C)CC3)nc12 [Compound 173, 9-{[8-methyl-2-(4-methylpiperazin-1-yl)quinolin-3-yl]methyl}-9H-purin-6-amine] |
| < 50 | Cc1cccc2cc(CNC(=O)c3nccnc3N)c(N(C)CCCN(C)C(=O)CN(C)C)nc12 [Compound 136, 3-amino-N-({2-[{3-[(N,N-dimethylglycyl)(methyl)amino]propyl}(methyl)amino]-8-methylquinolin-3-yl}methyl)pyrazine-2-carboxamide] |
| 500 to 1500 | Cc1ccccc1-n1c(Cn2cnc3c(N)ncnc32)nc2ccsc2c1=O [Compound 162, 2-[(6-amino-9H-purin-9-yl)methyl]-3-(2-methylphenyl)thieno[3,2-d]pyrimidin-4(3H)-one] |
| < 50 | CCN1CCN(c2nc3c(C)cccc3cc2CNc2ncnc3[nH]cnc23)CC1 [Compound 144, N-{[2-(4-ethylpiperazin-1-yl)-8-methylquinolin-3-yl]methyl}-9H-purin-6-amine] |
| < 50 | CNCCN(C)c1nc2c(C)cccc2cc1Cn1cnc2c(N)ncnc21 [Compound 149, N-{3-[(6-amino-9H-purin-9-yl)methyl]-8-methylquinolin-2-yl}-N,N′-dimethylethane-1,2-diamine] |
| 500 to 1500 | Cc1cccc2cc(Cn3cnc4c(N)ncnc43)c(NS(=O)(=O)c3ccccc3)nc12 [Compound 156, N-{3-[(6-amino-9H-purin-9-yl)methyl]-8-methylquinolin-2-yl}benzenesulfonamide] |
| 50 to 250 | Cc1cccc2cc(Cn3cnc4c(N)ncnc43)c(N3CCNCC3)nc12 [Compound 172, 9-[(8-methyl-2-piperazin-1-ylquinolin-3-yl)methyl]-9H-purin-6-amine] |
| 500 to 1500 | Cc1ccccc1-n1c(CNC(=O)c2nc(Br)cnc2N)nc2cccc(C)c2c1=O [Compound 160, 3-amino-6-bromo-N-{[5-methyl-3-(2-methylphenyl)-4-oxo-3,4-dihydroquinazolin-2-yl]methyl}pyrazine-2-carboxamide] |
